This is an account of results in US20170182058A1, “TREATMENT OF RETT SYNDROME” (priority 2014, published 2017).

By Papp A→B is commonly meant how fast a substance crosses the layer from the apical side. One may read the IC50 as the point on the concentration scale where inhibition reaches its midpoint.

Data set [1] can be described thus: in vitro permeability of a layer of CaCo-2 cells. In kind it is in vitro ADME, human. To be noted: human, Caco-2; test conc 50 μM, assay duration 2 hr; read-out: mean A->B Papp (apparent permeability). For orientation: Passage across Caco-2 layers is used to estimate intestinal permeability.
The target in another data set is cholinesterase. Particulars: cholinesterase inhibitor (Han et al 1991); cited from earlier work.
The test system of the next data set is female Mecp2 mice. In words: novel object recognition (NOR) task. In kind it is in vivo. To be noted: Mecp2 females. As to the method: Cognitive function was assessed using the novel object recognition (NOR) task using methods previously described (Schaevitz et al. 2013). […] Novel object memory was assessed. during three sessions. This task relies on the innate tendency of a mouse to explore unfamiliar objects vs. familiar objects. Testing was performed in an open-field arena. Twenty-four hours prior to training, mice were habituated to the arena for 10 min. Ninety minutes before training, the mice were administered drug or vehicle (0.1, 0.5, 1.0, 2.5 and 5.0 mg/kg IP). During training, mice were given 10 min to explore two identical Lego Objects (A +A). Short- and long-term object memory were assessed in two subsequent sessions (24 h after the completion of training) during which mice were given 10 min to explore the familiar (A) or a novel (B or C) object. The duration of exploration (defined as the mouse's snout or forelimbs physically touching or approaching within 1 cm of an object) of familiar and novel objects was measured. The amount of time spent exploring the novel object over the total time exploring both novel and familiar objects in each session was used to measure object memory. [N==6/dose of 0.1, 0.5 and 1.0; N=1/dose of 2.5 and 5.0 mg/kg; for vehicle N=6 WT and N=6 Mecp2 mice.]
For the novel Objection recognition task data, we created a matrix of all wildtype and. Mecp2 females who were administered the vehicle and a second matrix comparing Mecp2 females with and without the drug (all doses combined).

Data set [2] deals with mice. Particulars: cited from earlier work; for adverse effects at high doses: 50-100 mg/kg.
A further data set can be described thus: plasma stability. In kind it is in vitro ADME. Particulars: based on animal and in-vitro studies.
For data set [3], the system named is mice. In words: enhancement of learning in animals. Particulars: compared with galantamine. It is filed as in vivo. The text has this:
Potentiation of nicotinic receptors facilitates release of a number of different neurotransmitters including dopamine, glutamate, and GABA.

In a further data set the test system is CaCo-2 cells. Briefly: in vitro permeability of a layer of CaCo-2 cells. It is filed as in vitro ADME, human. To be noted: based on in vitro CaCo-2 permeability.
Data set [4] has as its system Mecp2 mice. Briefly: respiratory function, plethysmograph. It is filed as in vivo. To be noted: IP or gavage, 0.1-20 mg/kg. The method, then:
Respiratory function was monitored in a plethysmograph (EMKA Technologies) for 30 minutes prior to and 1 hour after drug administration (one set of mice received IP injections and one set of mice received oral gavage). [N=2 mice/group at each dose and each administration route; for the vehicle controls, N=6 WT/group; N=6 Mecp2/group]. Data were analyzed using repeated measures analysis of variance.

The test system of data set [5] is Mecp2 mice. Briefly: locomotor activity, photobeam activity system. It is filed as in vivo. Particulars: 0.1-20 mg/kg. The method, then:
Locomotor activity was monitored using methods described previously (Shaevitz et al. 2013 Genes Brain Behav. 12(7): 732-40. doi: […]). Mecp2 mutant males (between 1 and 3 months old) and females (between 3 and 6 months old) and age-matched controls were monitored for one-hour prior to and 12 hours after drug (or vehicle: 20% DMSO in saline) administration (one set of mice received IP injections and one set of mice received oral gavage) in doses that ranged from 0.1-20 mg/kg). Activity was measured across the 12-h dark cycle using a photobeam activity system (San Diego Instruments, San Diego, Calif., USA). Mice were placed individually into a cage (47×25×21 cm) inside a rectangular arena equipped with a 3×8 array of photobeams. The average number of ambulatory (two adjacent) and fine (repeated single) beam breaks per hour over the 12 h was compared. [N=2 mice/group at each dose and each administration route; for the vehicle controls, N=6 WT/group; N=6 Mecp2/group]. Data were analyzed using repeated measures analysis of variance.

Another data set concerns nicotinic receptors. In words: neuronal electrophysiological activity via nicotinic receptors. To be noted: galantamine positive allosteric modulatory site on nicotinic receptors.
The mark [6] stands for this setting: drug IP, all doses 0.1-5.0 mg/kg combined.

Where two headings read alike, the source gives them in different places.

With `CNC(=C[N+](=O)[O-])NCCSCc1ccc(CN(C)C)o1` [Ranitidine, reference compound], the Papp A→B at 2 hr, 50 μM in data set [1] amounted to 1.1 ×10⁻⁶ cm/s.

Turning to `CC(=O)CC(c1ccccc1)c1c(O)c2ccccc2oc1=O` (stereo not drawn) [Warfarin, reference compound], in data set [1], the Papp A→B at 2 hr, 50 μM was found to be 34.7 ×10⁻⁶ cm/s.

For the compound `CCCCNC(=O)O[C@H]1C=C[C@@]23CCN(C)Cc4ccc(OC)c(c42)O[C@H]3C1` [galantamine n-butylcarbamate], the IC50 on cholinesterase is 1090 nM. In addition, in the data set with female Mecp2 mice (setting [6]), the “NOR scores = or below 0.5 (share of mice that did not learn)” value worked out at 65% and the “NOR scores above 0.5 (share of mice that learned)” value is reported as 35%. In the data set on female Mecp2 mice (Chi square p = 0.0321), the “NOR task performance versus vehicle” value was “improves memory for a novel object and cognitive performance”. Besides, the “adverse effects at high doses” value in the data set with mice [2] (listed as Galantamine n-butylcarbamate) was “affects cardiac and motor functions”. Besides, the “adverse effects at high doses” value with mice [2] (listed as n-butylcarbamate) is “wobbly and off-balance with rapid heart rate still present at 4 hours, but were recovered at 24 hours”. Further, the “lethality (no lethality up to dose)” value in the data set with mice [2] is recorded as above 100 mg/kg. The stability in plasma entry in the data set “plasma stability” was “stable in plasma”. Moreover, in the data set with mice [3], the enhancing learning result was “effective in enhancing learning at lower doses than galantamine”. In the data set with CaCo-2 cells, the predicted oral bioavailability is reported as 80%. In addition, the Papp A→B at 2 hr, 50 μM in [1] is 20.8 ×10⁻⁶ cm/s. Further, in the data set with Mecp2 mice [4], the respiratory activity entry was “did not affect respiratory activity”. Besides, in the data set with Mecp2 mice [5] (Mecp2 mice of both sexes and controls, from locomotor and respiratory tests), the safety and tolerability result is “safe and well tolerated”. Further, the locomotor activity entry with Mecp2 mice [5] (Mecp2 mice of either sex, IP or gavage) is reported as “did not impair locomotor activity”. For the same compound, in the data set on Mecp2 mice [5] (all doses tested, IP or oral gavage), the “ambulatory and fine motor movements” value is “not significant altered”. For the same compound, the neuronal electrophysiological activity result in the data set on nicotinic receptors was “enhances neuronal electrophysiological activity”.
